# Measured values: patent US4316891A, “Extended N-terminal somatostatin” (The Salk Institute for Biological Studies, priority 1980, dated 1982)
# Where a SMILES comes first, the peptide text is derived from it. Bridges are numbered along the chain shown (N, C = ends).
# How the values were obtained:
# [1] = tested on: secretion of growth hormone; test: in vivo inhibition of growth hormone secretion stimulated by morphine in rats; details: in words
# Experimental: (§1) The statistical analysis of the results is carried out generally in accordance with the EXBIOL program reported in the article by Sakiz, Excerpta Medica, Int. Cong. Ser. No. 83 (1964), pp. 225-229.
# [2] = tested on: cells of rat pituitary glands; test: in vitro inhibition of basal growth hormone secretion in rat pituitary cell cultures, side-by-side with somatostatin; format: cell-based; details: substantially pure peptide, in words
# Experimental: To determine the effectiveness of the peptides to inhibit the release of growth hormone, in vitro assays are carried out using both somatostatin-28and somatostatin-25 in side-by-side comparison with equimolar concentrations of somotostatin having a known effectiveness to inhibit the release of growth hormone by pituitary cells. Cultures are used which include cells of rat pituitary glands removed some four to five days previously. Both cultures of a defined standard medium and cultures which are considered optimal for the secretion of growth hormone, as a result of having additions of either 2% or 10% of serum from a foetal calf, are used for the comparative testing between either somatostatin and somatostatin-28 or between somatostatin and somatostatin-25.
# as §1
# [3] = juvenile-type diabetics, complete absence of circulating insulin; cited from earlier work
Compound,activity versus somatostatin to inhibit growth hormone secretion stimulated by morphine [1],potency versus somatostatin in inhibiting the release of GH in vitro [2],diminution of fasting hyperglycemia [3] [%]
CSCC[C@H](NC(=O)[C@H](C)NC(=O)[C@@H]1CCCN1C(=O)[C@H](CC(N)=O)NC(=O)[C@@H](N)CO)C(=O)N[C@@H](C)C(=O)N1CCC[C@H]1C(=O)N[C@@H](CCCNC(=N)N)C(=O)N[C@@H](CCC(=O)O)C(=O)N[C@@H](CCCNC(=N)N)C(=O)N[C@@H](CCCCN)C(=O)N[C@@H](C)C(=O)NCC(=O)N[C@H]1CSSC[C@@H](C(=O)O)NC(=O)[C@H](CO)NC(=O)[C@H]([C@@H](C)O)NC(=O)[C@H](Cc2ccccc2)NC(=O)[C@H]([C@@H](C)O)NC(=O)[C@H](CCCCN)NC(=O)[C@H](Cc2c[nH]c3ccccc23)NC(=O)[C@H](Cc2ccccc2)NC(=O)[C@H](Cc2ccccc2)NC(=O)[C@H](CC(N)=O)NC(=O)[C@H](CCCCN)NC1=O [somatostatin-25] (H-SNPAMAPRERKAGCKNFFWKTFTSC-OH; disulfide 14-25),much more active than somatostatin,more potent than somatostatin,
CSCC[C@H](NC(=O)[C@H](C)NC(=O)[C@@H]1CCCN1C(=O)[C@H](CC(N)=O)NC(=O)[C@H](CO)NC(=O)[C@H](CC(N)=O)NC(=O)[C@H](C)NC(=O)[C@@H](N)CO)C(=O)N[C@@H](C)C(=O)N1CCC[C@H]1C(=O)N[C@@H](CCCNC(=N)N)C(=O)N[C@@H](CCC(=O)O)C(=O)N[C@@H](CCCNC(=N)N)C(=O)N[C@@H](CCCCN)C(=O)N[C@@H](C)C(=O)NCC(=O)N[C@H]1CSSC[C@@H](C(=O)O)NC(=O)[C@H](CO)NC(=O)[C@H]([C@@H](C)O)NC(=O)[C@H](Cc2ccccc2)NC(=O)[C@H]([C@@H](C)O)NC(=O)[C@H](CCCCN)NC(=O)[C@H](Cc2c[nH]c3ccccc23)NC(=O)[C@H](Cc2ccccc2)NC(=O)[C@H](Cc2ccccc2)NC(=O)[C@H](CC(N)=O)NC(=O)[C@H](CCCCN)NC1=O [somatostatin-28],much more active than somatostatin,more potent than somatostatin,
"somatostatin: tetradecapeptide somatostatin characterized by Guillemin et al., U.S. Pat. No. 3,904,594 (H-AGCKNFFWKTFTSC-OH; disulfide 3-14; ends not checked; UniProt P61278 103-116, looked up)",,,≤ 50
